Source: US5773573A, “HIV peptides” (priority 1994, dated 1998)
Residues, ends and D or L forms follow the SMILES beside them.

Assay: White cell and T cell subset counts (CD4, CD8, NK) in HIV infected patient given HEP1
Assay type: in vivo, human
Settings: patient three
Protocol: The objective of this study was to determine in an HIV infected patient if the induction of immunological tolerance to HEP1 could reduce immune activation and HIV infection. The design of the first clinical experiment was to orally administer HEP1 to the patient in daily 10 mg doses (the lower end of the preferred dose range). This was then followed approximately three months later with a subcutaneous administration of HEP1 at a higher dose of 140 mg. To assess the therapeutic benefit of HEP1, the following disease progression markers were measured by taking blood samples before, during and after each trial and determining: HIV levels by a p24 antigen assay, HIV infectivity by a cellular TCID assay and immune activation by quantitating levels of various lymphocytes.
T cell subsets were measured by adding a whole blood sample to a 4.5 ml tube containing EDTA and staining with monoclonal antibodies to CD3, CD4 and CD8. The percentage of T cells in Peripheral Blood Lymphocytes were determined by flow-cytometric procedures. The numbers of CD4 and CD8 T cells were determined by obtaining total and differential white-cell counts and multiplying by the appropriate factor obtained on flow cytometry.
The following markers of HIV disease progression were assayed: p24Ag (the concentration of HIV p24 protein in picogram/ml in the blood), TCID (the infectivity of the HIV in the cells of blood sample measured by an in vitro cell culture assay in which a serial dilution of the sample was mixed with activated uninfected PBMC and the level of HIV infection determined by p24Ag assay), total white count (immune activation measured by the number of white cells per mm^3), CD4 (the number of CD4 positive cells per mm^3), CD8 (the number of CD8 positive cells per mm^3), NK (the number of Natural Killer cells per mm^3), Lymphocytes (the number of cells per mm^3), Monocytes (the number of cells per mm^3), and Granulocytes (the number of cells per mm^3). Normalised data was calculated by dividing each data point by the value of its data series on day 1 of the trail and multiplying by 100.

[1] = oral HEP1 10 mg daily day 2-22, day-69, before treatment
[2] = orally administered HEP1 10 mg daily
[3] = single subcutaneous HEP1 dose on day 1, day 1*, four hours after injection
[4] = single subcutaneous HEP1 dose on day 1, day 1, before injection
[5] = single subcutaneous HEP1 dose on day 1, day 6, after injection
[6] = single subcutaneous HEP1 dose on day 1, day-7, before treatment
[7] = single subcutaneous HEP1 dose on day 1, day-56, before treatment
[8] = single subcutaneous HEP1 dose on day 1, day-91, end of oral study
[9] = subcutaneous administration of one larger dose of HEP1

CC(C)[C@H](NC(=O)[C@@H](NC(=O)[C@H](CCC(=O)O)NC(=O)[C@H](CCCNC(=N)N)NC(=O)[C@H](CCCNC(=N)N)NC(=O)[C@H](CCCCN)NC(=O)[C@H](CCCCN)NC(=O)[C@H](CCC(=O)O)NC(=O)[C@@H](N)[C@@H](C)O)[C@@H](C)O)C(=O)N[C@@H](CCC(=O)O)C(=O)N[C@@H](CCCNC(=N)N)C(=O)N[C@@H](CCC(=O)O)C(=O)N[C@@H](CCCCN)C(=O)N[C@@H](CCC(=O)O)C(=O)O [HEP1, NH2 ThrGluLysLysArgArgGluThrValGluArgGluLysGluCOOH] (H-TEKKRRETVEREKE-OH)
NK, normalised data (day 1 = 100) [1]: 67 | White count [1]: 7900 cells per mm^3 | White count, normalised data (day 1 = 100) [1]: 96 | CD4 count, course [2]: no significant increase | CD8, course [2]: increased during treatment | total white cell count, course (immune activation) [2]: fell during and after treatment and fall | % Granulocytes [3]: 55% | % Granulocytes, normalised data (day 1 = 100) [3]: 80 | % Lymphocytes [3]: 33% | % Lymphocytes, normalised data (day 1 = 100) [3]: 142 | % Monocytes [3]: 11% | % Monocytes, normalised data (day 1 = 100) [3]: 138 | CD4 [3]: 120 cells per mm^3 | CD4, normalised data (day 1 = 100) [3]: 150 | CD8 [3]: 1130 cells per mm^3 | CD8, normalised data (day 1 = 100) [3]: 128 | Granulocytes [3]: 2530 cells per mm^3 | Granulocytes, normalised data (day 1 = 100) [3]: 66 | Lymphocytes [3]: 1520 cells per mm^3 | Lymphocytes, normalised data (day 1 = 100) [3]: 118 | Monocytes [3]: 510 cells per mm^3 | Monocytes, normalised data (day 1 = 100) [3]: 113 | NK [3]: 30 cells per mm^3 | NK, normalised data (day 1 = 100) [3]: 267 | White count [3]: 4600 cells per mm^3 | White count, normalised data (day 1 = 100) [3]: 82 | % Granulocytes [4]: 69% | % Granulocytes, normalised data (day 1 = 100) [4]: 100 | % Lymphocytes [4]: 23.3% | % Lymphocytes, normalised data (day 1 = 100) [4]: 100 | % Monocytes [4]: 8% | % Monocytes, normalised data (day 1 = 100) [4]: 100 | CD4 [4]: 80 cells per mm^3 | CD4, normalised data (day 1 = 100) [4]: 100 | CD8 [4]: 880 cells per mm^3 | CD8, normalised data (day 1 = 100) [4]: 100 | Granulocytes [4]: 3860 cells per mm^3 | Granulocytes, normalised data (day 1 = 100) [4]: 100 | Lymphocytes [4]: 1290 cells per mm^3 | Lymphocytes, normalised data (day 1 = 100) [4]: 100 | Monocytes [4]: 450 cells per mm^3 | Monocytes, normalised data (day 1 = 100) [4]: 100 | NK [4]: 30 cells per mm^3 | NK, normalised data (day 1 = 100) [4]: 100 | White count [4]: 5600 cells per mm^3 | White count, normalised data (day 1 = 100) [4]: 100 | % Lymphocytes [5]: 22.2% | CD4 [5]: 80 cells per mm^3 | CD4, normalised data (day 1 = 100) [5]: 100 | CD8 [5]: 780 cells per mm^3 | CD8, normalised data (day 1 = 100) [5]: 89 | White count [5]: 5400 cells per mm^3 | White count, normalised data (day 1 = 100) [5]: 96 | % Granulocytes [6]: 81% | % Granulocytes, normalised data (day 1 = 100) [6]: 117 | % Lymphocytes [6]: 12.9% | % Lymphocytes, normalised data (day 1 = 100) [6]: 55 | % Monocytes [6]: 7% | % Monocytes, normalised data (day 1 = 100) [6]: 88 | CD4 [6]: 70 cells per mm^3 | CD4, normalised data (day 1 = 100) [6]: 88 | CD8 [6]: 670 cells per mm^3 | CD8, normalised data (day 1 = 100) [6]: 76 | Granulocytes [6]: 6640 cells per mm^3 | Granulocytes, normalised data (day 1 = 100) [6]: 172 | Lymphocytes [6]: 980 cells per mm^3 | Lymphocytes, normalised data (day 1 = 100) [6]: 76 | Monocytes [6]: 570 cells per mm^3 | Monocytes, normalised data (day 1 = 100) [6]: 127 | NK [6]: 40 cells per mm^3 | NK, normalised data (day 1 = 100) [6]: 133 | White count [6]: 8200 cells per mm^3 | White count, normalised data (day 1 = 100) [6]: 146 | % Granulocytes [7]: 75% | % Granulocytes, normalised data (day 1 = 100) [7]: 109 | % Lymphocytes [7]: 19% | % Lymphocytes, normalised data (day 1 = 100) [7]: 82 | % Monocytes [7]: 6% | % Monocytes, normalised data (day 1 = 100) [7]: 75 | CD4 [7]: 75 cells per mm^3 | CD4, normalised data (day 1 = 100) [7]: 94 | CD8 [7]: 880 cells per mm^3 | CD8, normalised data (day 1 = 100) [7]: 100 | Granulocytes [7]: 4950 cells per mm^3 | Granulocytes, normalised data (day 1 = 100) [7]: 128 | Lymphocytes [7]: 1250 cells per mm^3 | Lymphocytes, normalised data (day 1 = 100) [7]: 97 | Monocytes [7]: 400 cells per mm^3 | Monocytes, normalised data (day 1 = 100) [7]: 89 | NK [7]: 75 cells per mm^3 | NK, normalised data (day 1 = 100) [7]: 250 | White count [7]: 6600 cells per mm^3 | White count, normalised data (day 1 = 100) [7]: 118 | % Granulocytes [8]: 74.5% | % Granulocytes, normalised data (day 1 = 100) [8]: 108 | % Lymphocytes [8]: 20% | % Lymphocytes, normalised data (day 1 = 100) [8]: 86 | % Monocytes [8]: 5.5% | % Monocytes, normalised data (day 1 = 100) [8]: 69 | CD4 [8]: 80 cells per mm^3 | CD4, normalised data (day 1 = 100) [8]: 100 | CD8 [8]: 730 cells per mm^3 | CD8, normalised data (day 1 = 100) [8]: 83 | Granulocytes [8]: 4020 cells per mm^3 | Granulocytes, normalised data (day 1 = 100) [8]: 104 | Lymphocytes [8]: 1050 cells per mm^3 | Lymphocytes, normalised data (day 1 = 100) [8]: 81 | Monocytes [8]: 440 cells per mm^3 | Monocytes, normalised data (day 1 = 100) [8]: 98 | NK [8]: 20 cells per mm^3 | NK, normalised data (day 1 = 100) [8]: 67 | White count [8]: 5500 cells per mm^3 | White count, normalised data (day 1 = 100) [8]: 98 | CD4 and CD8 T cells, course after the rise [9]: return to the pre-injection i levels six days later | rise in CD4 T cells after the HEP1 injection [9]: +50% | rise in CD8 T cells after the HEP1 injection [9]: +28% | CD4+ and CD8+ T cells, course (subcutaneous administration of one larger dose of HEP1 (FIG. 3)): sharp increase
